Converted amounts (≈) assume the structure as drawn. Read-outs that look alike come from different tables or passages of the source.
Assays:
Format in all cases: physicochemical
[1] = VTI moisture adsorption/desorption (hygroscopicity); conditions: for Hygroscopicity (by weight) at 90% relative humidity at ambient temperature / Hygroscopic moisture gain / weight gain at 90% RH (VTI): 90% RH; for Hygroscopic moisture gain / weight gain at 90% RH (VTI): flow-through VTI, 25 C; for Hygroscopicity assessment in words: VTI, up to 90% RH
Description: The salts and solvates of the present invention can be further characterized by VTI water vapor adsorption to measure hygroscopicity. […] Other methods of analysis are described in more detail in the Examples.
This monobesylate salt of Formula I appeared as fine crystalline particles of moderate to high birefringence with irregularly-shaped morphology. The size of the particles ranged from approximately […] to 50 mm in diameter, with some aggregates up to about 200 mm in diameter. The material was tested using DSC at a heating rate of five degrees/minute, FIG. 1(b). A sharp melting endotherm with onset temperature of 254° C. was observed. Minor front tailing for the endotherm was also noted. The material was tested by TGA at a heating rate of five degrees/minute, FIG. 1(c). No loss in weight was observed up to the melting onset temperature (˜250)° C. […] These solvents were thus likely entrained by the crystal and were not released until melting. […] The dynamic moisture sorption was evaluated using a flow-through VTI apparatus at 25° C. The sample was initially dried at ˜2% RH for maximum of two hours, followed by a moisture adsorption ramp from 10% RH to 90%, then a desorption ramp back down to 10% RH. Initial drying removed 0.08% by weight, followed by a maximum moisture gain of 0.09% at 90% RH. Thus, this complex was non-hygroscopic.
The sample was tested in flow-through VTI with relative humidity ramp from 0 to 90%, then a desorption ramp back down to 10%1 RH at 25 C. […] The monomesylate was analyzed for elemental composition of carbon, hydrogen, nitrogen, fluorine and sulfur. The results from analysis met the stoichiometry of a mono-mesylate salt containing 1% THF.
The hemihydrate tosylate salt of Formula I consisted of fine birefringent aggregated needles and lathes. This sample was crystalline by PXRD. The thermal profile of this sample was obtained by heating from 30-300 C at 5 C/min. […] The volatile content of this sample was obtained by heating from 30-225 C at 5 C/min. The total volatile content was 1.4%, and consisted of water and ethanol by IR. The sample was tested in flow-through VTI with relative humidity ramp from 0 to 90% at 25 C.

[2] = Solid-state stability at 70 C/75% RH
Procedure: The monobesylate salt of Formula I (m. wt. 665.67), Form A, was a white crystalline solid with irregularly-shaped particle morphology ranging from approximately […] in diameter. This anhydrous form melted (DSC, Tonset) at 254° C. with decomposition.

[3] = Solubility in aqueous media and organic solvents
Description: (§1) Solubility increased in acidic media, with a solubility of 1 mgA/ml observed in pH 2 buffer. […] Solubility determined in several common organic solvents, such as ethanol and acetone, was about 200 mgA/ml. The following table summarizes the physical and chemical properties of the monobesylate salt of Formula I: […]

pKa in solution = conditions: weak base
Description: as §1

[4] = listed as monobesylate salt of Formula I

CN(c1ncccc1CNc1nc(Nc2ccc3c(c2)CC(=O)N3)ncc1C(F)(F)F)S(C)(=O)=O [Example 4, N-Methyl-N-(3-{[2-(2-oxo-2,3-dihydro-1H-indol-5-ylamino)-5-trifluoromethyl-pyrimidin-4-ylamino]-methyl}-pyridin-2-yl)-methanesulfonamide]
Hygroscopicity (by weight) at 90% relative humidity at ambient temperature [1]: 0.6%
Hygroscopic moisture gain / weight gain at 90% RH (VTI) ([1]; listed as tosylate salt of Formula I): 0.6%

CN(c1ncccc1CNc1nc(Nc2ccc3c(c2)CC(=O)N3)ncc1C(F)(F)F)S(C)(=O)=O [Example 3, N-Methyl-N-(3-{[2-(2-oxo-2,3-dihydro-1H-indol-5-ylamino)-5-trifluoromethyl-pyrimidin-4-ylamino]-methyl}-pyridin-2-yl)-methanesulfonamide]
Hygroscopicity (by weight) at 90% relative humidity at ambient temperature [1]: 1.4%
Hygroscopicity assessment in words ([1]; listed as monomesylate): kinetically non-hygroscopic
Hygroscopic moisture gain / weight gain at 90% RH (VTI) ([1]; listed as monomesylate): 1.4%

CN(c1ncccc1CNc1nc(Nc2ccc3c(c2)CC(=O)N3)ncc1C(F)(F)F)S(C)(=O)=O [Example 5, N-Methyl-N-(3-{[2-(2-oxo-2,3-dihydro-1H-indol-5-ylamino)-5-trifluoromethyl-pyrimidin-4-ylamino]-methyl}-pyridin-2-yl)-methanesulfonamide]
Hygroscopicity (by weight) at 90% relative humidity at ambient temperature [1]: 2.7%

CN(c1ncccc1CNc1nc(Nc2ccc3c(c2)CC(=O)N3)ncc1C(F)(F)F)S(C)(=O)=O [Example 2, N-Methyl-N-(3-{[2-(2-oxo-2,3-dihydro-1H-indol-5-ylamino)-5-trifluoromethyl-pyrimidin-4-ylamino]-methyl}-pyridin-2-yl)-methanesulfonamide]
Hygroscopicity (by weight) at 90% relative humidity at ambient temperature [1]: 0.16%
Hygroscopic moisture gain / weight gain at 90% RH (VTI) ([1]; listed as besylate salt of Formula I): 0.16%

CN(c1ncccc1CNc1nc(Nc2ccc3c(c2)CC(=O)N3)ncc1C(F)(F)F)S(C)(=O)=O [Example 6, N-Methyl-N-(3-{[2-(2-oxo-2,3-dihydro-1H-indol-5-ylamino)-5-trifluoromethyl-pyrimidin-4-ylamino]-methyl}-pyridin-2-yl)-methanesulfonamide]
Hygroscopicity (by weight) at 90% relative humidity at ambient temperature [1]: 1.4%

CN(c1ncccc1CNc1nc(Nc2ccc3c(c2)CC(=O)N3)ncc1C(F)(F)F)S(C)(=O)=O [Example 1, N-Methyl-N-(3-{[2-(2-oxo-2,3-dihydro-1H-indol-5-ylamino)-5-trifluoromethyl-pyrimidin-4-ylamino]-methyl}-pyridin-2-yl)-methanesulfonamide]
Solid-state stability, 3 weeks at 70 C./75% RH (purity by HPLC area % relative to room temperature control) ([2]; 3 weeks, 70 C/75% RH): >99.9% (purity by HPLC
Solid-state stability in words ([2]; three weeks exposure to 70 C/75% RH): chemically and physically stable in the solid-state
Acetone solubility ([3]; acetone): 206 ugA/ml
Aqueous buffer pH 1.4 solubility ([3]; aqueous buffer pH 1.4): 1162 ugA/ml
Aqueous buffer pH 7 solubility ([3]; aqueous buffer pH 7): 4 ugA/ml
solubility ([3]; aqueous buffer, heading: Solubility in unbuffered water, unbuffered water, pH 2.65): 369 µg/mL (≈ 727 µM)
solubility ([3]; aqueous buffer, pH 2 buffer, read-out: Solubility in pH 2 buffer): 1000 µg/mL (≈ 1970 µM)
solubility ([3]; aqueous media, water, aqueous, above pH 5, read-out: Aqueous solubility above pH 5): ~5000 µg/mL (≈ 9850 µM)
Ethanol solubility ([3]; ethanol): 260 ugA/ml
Solubility in common organic solvents, such as ethanol and acetone ([3]; organic solvents): about 200 mgA/ml
Unbuffered water solubility (pH 2.65) ([3]; unbuffered water, pH 2.65 (table)): 369 ugA/ml
Hygroscopicity assessment in words [1, 4]: non-hygroscopic
Hygroscopic moisture gain / weight gain at 90% RH (VTI) [1, 4]: 0.09%
pKa (pKa in solution): 4.58
